Laboratory results from patent publication US20080064760A1, “Spontaneously Dispersible Pharmaceutical Composition” (priority 2004, published 2008).
≈ marks a conversion by molar mass, not a printed value.

Experiments:
Log P in octanol = format: physicochemical
Experimental: (§1) The melting range of Compound I is from 120.5-151° C. In both Samples 4A and 4B, the drug loading is 4% or 20 mg/capsule.

Solubility of Compound I = format: physicochemical
Experimental: as §1

**Q.** For `COC(=O)N[C@]1(C)Cc2ccc(NC(=O)c3cccc(C)c3-c3ccc(C(F)(F)F)cc3)cc2C1` [Compound I], which “Log P in octanol” value (Log P in octanol) is on record?
**A.** Its value is 4.66.

**Q.** And the solubility (Solubility of Compound I)?
**A.** The solubility was 0.17 µg/mL (≈ 0.352 µM).
